Entries after “also recorded” stand apart in the source; their conditions may differ.
How the values were obtained:
[1] = system: α1C subunit of L-type Ca^2+ channels; experiment: Q-PCR of α1C mRNA expression in HCCSMC; format: cell-based, human
Text: Primary cultures of HCCSMC: Human tissue was obtained from the descending and sigmoid colons with approval of the University of Texas Medical Branch Institutional Review Board from disease free margins of resected segments from patients undergoing surgery for colon cancer. The circular muscle layer was separated from the taenia coli and lamina propria with a tissue slicer. The circular muscle layer was collected in ice-cold HEPES buffer (in mM: 120 NaCl, 2.6 KH2S04, 4 KCl, 2 CaCl2, 0.6 MgCl2, 25 HEPES, 14 glucose and 2.1% essential amino acid mixture, pH 7.4). Two successive digestions with papain and collagenase, as described previously by Shi and Sarna, were used to disperse smooth muscle cells. The cells were cultured in RPMI 1640 (Gibco/Invitrogen, Carlsbad, Calif.) supplemented with 10% fetal bovine serum in the presence of 100 units/mL of penicillin G, 100 μg/mL of streptomycin sulfate and 0.25 μg/mL of amphoteracin B. The culture medium was changed every three days. Cells in passages 3 to 5 were used in all experiments. All cells were cultured in serum-free medium for at least 15 h prior to experiments to eliminate the possible effects of growth factors. […] The cultures of colonic smooth muscle cells retain their contractile phenotype. Each experiment used cells or muscle strips from at least three different subjects.
Total RNA was extracted from cells using the Qiagen RNeasy kit (Qiagen, Valencia, Calif.) by following the manufacturer's protocol. The cDNAs were made using the Superscript First-Strand Synthesis System (Invitrogen, Carlsbad, Calif.).
Quantitive real-time-polymerase chain reaction (Q-PCR). Q-PCR assay is employed to determine gene expression using TaqMan technology on Applied Biosystems 7000 sequence detection system (UTMB Real-time PCR Core Facility). Applied Biosystems Assays-By-Design containing a 20× assay mix of primers and TaqMan MGB probes (FAMTM dye-labeled) are used for a target gene and the endogenous control, human 18s RNA. These assays were designed using primers that span exon-exon junctions so as not to detect genomic DNA. All primer and probe sequences were searched against the Celera data base to confirm specificity. The primer and probe sequences used were as follows: human Cav1.2 channel oα1C intermediate form (Cav1.2b) probe spanning exon 1b and exon 2, […] (SEQ ID NO:4): forward primer, […] (SEQ ID NO:5): reverse primer, […] (SEQ ID NO:6). Human Cav1.2 channel α1C long form (Cav1.2a) probe spanning exon 1a and exon 2: […] (SEQ ID NO:7): forward primer, […] (SEQ ID NO:8): reverse primer. […] (SEQ ID NO:6).

ERK ½ = experiment: MAP kinase phosphorylation: ERK ½; format: cell-based

Substance: vasoactive intestinal polypeptide [VIP]
- induction of α1C mRNA expression ([1]; HCCSMC): induced expression; also recorded: enhanced the mRNA of α1C
- duration of α1C mRNA transcription and translation after treatment ([1]; HCCSMC, FIG. 3): at least 24 h
- increase of α1C mRNA ([1]; at 6 h, adult human colonic circular smooth muscle cells): about 50%
- phosphorylation of ERK ½ (ERK ½): time-dependently dephosphorylated

Reference: patent US20080269121A1, “Methods and Compositions Involving A1c Subunit of L-Type Calcium Channels in Smooth Muscle Cells” (The Board of Regents of the University of Texas System, priority 2005, published 2008)
